In this experiment the target is T1, FLAG-p38α (Homo sapiens, UniProt Q16539).
T1 construct: expressed in transfected cells; host or cells: HeLa
The experiment can be described thus: Ubiquitination assay, HeLa cells co-transfected with HA-Ub and FLAG-p38α. The experiment is classed as cell-based. The note with it: 500 nM, 1 hour. How it is done: FIGS. 14A, 14B, and 14C. p38α selectivity is discriminated by ternary complex formation. (A) Only p38α incubated in the presence of exemplary compound 50 can be immunoprecipitated with GST-tagged VHL/EloB/EloC (VBC). Immobilized VBC was used as a bait to trap purified p38α in the presence of vehicle (DMSO), compound 50, or compound 46 (represented in micromolar concentrations). The rightmost lane represents a 1:25 dilution of initial input protein used in each pull-down. (B) Proximity-based AlphaLISA assay detects significant p38α:compound 50:VHL ternary complex, but no p38α:compound 46:VHL ternary complex. His-p38α and GST-VBC were incubated in the presence of increasing concentrations of compound 50 and compound 46 and the extent of ternary complex formation was assessed by excitation with incident light with 1=680 nm and capture of the emission light at 1=615 nm. Error bars represent the SD from quadruplicate experiments. (C) Only exemplary compound 50 ubiquitinates FLAG-p38α in HeLa cells. […] FLAGimmunoprecipitated lysates were separated by SDS-PAGE and assessed via western blots detecting HA (Ub). […]
HeLa cells (2×10^6) were seeded into 10 cm dishes and allowed to adhere overnight. […] Lysates were spun down at 14,000×g at 4° C. for 20 minutes and protein content was measured by Pierce BCA Protein Assay (ThermoFisher Scientific). […]

Data on 2 compounds can be found in US20180353501A1 (Arvinas, Inc., priority 2017, published 2018).

T1 sequence (Q16539 whole entry): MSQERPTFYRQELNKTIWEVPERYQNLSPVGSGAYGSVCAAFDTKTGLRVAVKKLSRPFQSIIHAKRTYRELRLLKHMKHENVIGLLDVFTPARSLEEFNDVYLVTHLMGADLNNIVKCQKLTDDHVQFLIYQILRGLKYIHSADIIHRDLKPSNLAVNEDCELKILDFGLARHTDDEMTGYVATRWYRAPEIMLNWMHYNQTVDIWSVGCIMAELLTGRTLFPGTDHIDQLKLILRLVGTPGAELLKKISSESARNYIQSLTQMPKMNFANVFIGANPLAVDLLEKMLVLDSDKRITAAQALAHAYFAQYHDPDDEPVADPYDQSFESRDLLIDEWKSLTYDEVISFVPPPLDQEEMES

With `COc1cc2c(Oc3ccc(NC(=O)C4(C(=O)Nc5ccc(F)cc5)CC4)cc3F)ccnc2cc1OCCOCCOCCOc1cc(-c2scnc2C)ccc1CNC(=O)[C@@H]1C[C@@H](O)CN1C(=O)[C@H](C(C)C)N1Cc2ccccc2C1=O` [compound 46], the “ubiquitination of FLAG-p38α” value is reported as “this effect was not seen”.

On to `COc1cc2c(Oc3ccc(NC(=O)C4(C(=O)Nc5ccc(F)cc5)CC4)cc3F)ccnc2cc1OCCCCOCCCCOCC(=O)N[C@H](C(=O)N1C[C@H](O)C[C@H]1C(=O)NCc1ccc(-c2scnc2C)cc1)C(C)(C)C` [compound 50, N-(3-fluoro-4-((7-(4-(4-(2-(((S)-1-((2S,4R)-4-hydroxy-2-((4-(4-methylthiazol-5-yl)benzyl)carbamoyl)pyrrolidin-1-yl)-3,3-dimethyl-1-oxobutan-2-yl)amino)-2-oxoethoxy)butoxy)buto-xy)-6-methoxyquinolin-4-yl)oxy)phenyl)-N-(4-fluorophenyl)cyclopropane-1,1-dicarboxa-mide], for which the “ubiquitination of FLAG-p38α” value was “substantial ubiquitination”.
